One experiment relates to interleukin-6 (IL-6). In words: IL-6 level assay (ELISA). The format is cell-based, human. The settings on record: 72 h. As for the experimental part:
IL-6 concentration at all studied cancer cells and normal HaCaT cell lines was measured by ELISA kit (Diaclon SAS Besancon Cedex, France). […] IL-6 in cell culture supernatant was measured using enzyme-linked immunosorbent assay in accordance with the manufacturer’s protocol.
(ELISA stands for enzyme-linked immunosorbent assay.)

The test system of a further experiment is P. aeruginosa ATCC 15442. Kind of experiment: MIC, twofold serial microdilution. The settings on record: P. aeruginosa ATCC 15442, 18 h, 35 °C. The format is cell-based, Pseudomonas aeruginosa. Here is the method:
(§1) The antimicrobial activity of the compounds was tested on Gram-positive bacteria (Staphylococcus aureus NCTC 4163, Staphylococcus aureus ATCC 25923, Staphylococcus aureus ATCC 6538, Staphylococcus aureus ATCC 29213, Staphylococcus epidermidis ATCC 12228, Staphylococcus epidermidis ATCC 35984), Gram-negative rods (Escherichia coli ATCC 10538, Escherichia coli ATCC 25922, Pseudomonas aeruginosa ATCC 15442, Pseudomonas aeruginosa ATCC 27863) and yeasts (Candida albicans ATCC 10231, Candida albicans ATCC 90028, Candida parapsilosis ATCC 22019). Hospital methicillin-resistant strains of Staphylococcus aureus and Staphylococcus epidermidis were obtained from the collection of the Department of Pharmaceutical Microbiology, Medical University of Warsaw, Poland.
(§2) Antifungal activities were assessed using Mueller–Hinton agar + 2% glucose and 0.5 µg/mL methylene blue dye medium. Sterile filter paper discs (9 mm diameter, Whatman Number 3 chromatography paper) were dripped with tested compound solutions (in dimethylsulfoxide, DMSO) to load 400 μg of a given compound per disc. Dry discs were placed on the surface of appropriate agar medium. The results (diameter of the growth inhibition zone) were read after 18 h of incubation at 35 °C. Minimal inhibitory concentration (MIC) was tested by the twofold serial microdilution method (in 96-well microtiter plates) using Mueller–Hinton broth medium (Beckton Dickinson) for bacteria or RPMI-1640 medium for Candida species, according to CLSI guidelines. The stock solution of tested agent was prepared in DMSO and diluted in sterile water. […] The final inoculum of all studied microorganisms was 10^5 CFU/ mL^−1 (colony forming units per ml). Minimal inhibitory concentrations (the lowest concentration of a tested agent that prevents visible growth of a microorganism) were read after 18 h (bacteria) or 24 h (yeasts) of incubation at 35 °C.

For a further experiment, the system named is P. aeruginosa ATCC 27853. In words: MIC, twofold serial microdilution. The format is cell-based, Pseudomonas aeruginosa. The settings on record: P. aeruginosa ATCC 27853, 18 h, 35 °C. Here is the method: as §1, §2
The next experiment deals with S. aureus 481. In words: MIC, hospital MRSA strain. The format is cell-based, Staphylococcus aureus. The settings on record: for MIC: hospital MRSA S. aureus 481. Here is the method:
as §1, §2

The next experiment deals with S. aureus 495. Kind of experiment: MIC, hospital MRSA strain. The format is cell-based, Staphylococcus aureus. The settings on record: hospital MRSA S. aureus 495. As for the experimental part: as §1, §2
The test system of the next experiment is S. aureus 496. In words: MIC, hospital MRSA strain. The settings on record: hospital MRSA S. aureus 496. The format is cell-based, Staphylococcus aureus. As for the experimental part: as §1, §2
The next experiment deals with S. aureus 497. Kind of experiment: MIC, hospital MRSA strain. The format is cell-based, Staphylococcus aureus. The settings on record: hospital MRSA S. aureus 497. As for the experimental part: as §1, §2
The test system of a further experiment is S. aureus 498. In words: MIC, hospital MRSA strain. The format is cell-based, Staphylococcus aureus. The following applies: hospital MRSA S. aureus 498. Here is the method: as §1, §2
For the next experiment, the system named is S. aureus 514. Kind of experiment: MIC, hospital MRSA strain. The format is cell-based, Staphylococcus aureus. The settings on record: hospital MRSA S. aureus 514. As for the experimental part:
as §1, §2

The test system of the next experiment is S. aureus 522. Kind of experiment: MIC, hospital MRSA strain. The format is cell-based, Staphylococcus aureus. The following applies: hospital MRSA S. aureus 522. Here is the method: as §1, §2
The next experiment has as its system S. aureus 537. In words: MIC, hospital MRSA strain. The following applies: hospital MRSA S. aureus 537. The format is cell-based, Staphylococcus aureus. As for the experimental part: as §1, §2
A further experiment deals with S. aureus 567. Kind of experiment: MIC, hospital MRSA strain. The settings on record: hospital MRSA S. aureus 567. The format is cell-based, Staphylococcus aureus. As for the experimental part: as §1, §2
The subject of the next experiment is S. aureus 568. In words: MIC, hospital MRSA strain. The format is cell-based, Staphylococcus aureus. The settings on record: hospital MRSA S. aureus 568. Here is the method: as §1, §2
Another experiment concerns S. aureus 572. In words: MIC, hospital MRSA strain. The format is cell-based, Staphylococcus aureus. The following applies: for MIC: hospital MRSA S. aureus 572. As for the experimental part: as §1, §2
The test system of the next experiment is S. aureus 573. Kind of experiment: MIC, hospital MRSA strain. The following applies: hospital MRSA S. aureus 573. The format is cell-based, Staphylococcus aureus. As for the experimental part: as §1, §2
A further experiment deals with S. aureus 585. Kind of experiment: MIC, hospital MRSA strain. The format is cell-based, Staphylococcus aureus. The following applies: hospital MRSA S. aureus 585. Here is the method:
as §1, §2

The subject of the next experiment is S. aureus 586. In words: MIC, hospital MRSA strain. The following applies: hospital MRSA S. aureus 586. The format is cell-based, Staphylococcus aureus. As for the experimental part: as §1, §2

SMILES strings stand for the structures. Where only a bound is given, the exact number is not on record here.

With `O=[N+]([O-])c1cc([N+]2=C(Nc3ccc(Br)cc3)[S][Cu-2]23[S]C(Nc2ccc(Br)cc2)=[N+]3c2ccc(Cl)c([N+](=O)[O-])c2)ccc1Cl` [Compound 3, Copper (II) complex with 1-(4-bromophenyl)-3-(4-chloro-3-nitrophenyl)thiourea], in the experiment on interleukin-6 (IL-6) (SW480, IC50 dose, vs control), the “decrease of IL-6 level” value is listed as at most 30%. In addition, the MIC in the experiment with P. aeruginosa ATCC 15442 came to 128 µg/mL; in the experiment with P. aeruginosa ATCC 27853, 128 µg/mL; in the experiment with S. aureus 481, 4 µg/mL; in the experiment with S. aureus 495, 4 µg/mL; in the experiment with S. aureus 496 it was 4 µg/mL; with S. aureus 497, 4 µg/mL. The MIC with S. aureus 498, against S. aureus 514, against S. aureus 522, against S. aureus 537, in the experiment on S. aureus 567 and in the experiment on S. aureus 568 was 4 µg/mL each time. Also, the MIC against S. aureus 572, in the experiment on S. aureus 573, against S. aureus 585 and against S. aureus 586 was 4 µg/mL in each case. Also, the “times more active than ciprofloxacin” value in the experiment with S. aureus 481 (S. aureus 481) and with S. aureus 572 (S. aureus 572) was 64 times in each case.

`O=[N+]([O-])c1cc([N+]2=C(Nc3ccccc3Br)[S][Cu-2]23[S]C(Nc2ccccc2Br)=[N+]3c2ccc(Cl)c([N+](=O)[O-])c2)ccc1Cl` [Compound 1, Copper (II) complex with 1-(2-bromophenyl)-3-(4-chloro-3-nitrophenyl)thiourea]: the “reduction of IL-6 secretion, times” value in the experiment with interleukin-6 (IL-6) (PC3, IC50 dose) turned out to be 1.5 times. For the same compound, the “reduction of IL-6 level, times” value with interleukin-6 (IL-6) (SW480, IC50 dose, vs control) stood at 1.9 times. In the experiment on interleukin-6 (IL-6) (SW620, IC50 dose), the “reduction of IL-6 concentration, times” value came out at 2.4 times. The MIC turned out to be 128 µg/mL against P. aeruginosa ATCC 15442; 128 µg/mL in the experiment with P. aeruginosa ATCC 27853; 8 µg/mL with S. aureus 481; 8 µg/mL in the experiment with S. aureus 495; 8 µg/mL against S. aureus 496; 8 µg/mL against S. aureus 497. Also, the MIC in the experiment with S. aureus 498, in the experiment on S. aureus 514, with S. aureus 522, against S. aureus 537, in the experiment on S. aureus 567 and in the experiment on S. aureus 568 was 8 µg/mL in each case. The MIC is 8 µg/mL against S. aureus 572, 8 µg/mL in the experiment with S. aureus 573, 8 µg/mL in the experiment on S. aureus 585 and 4 µg/mL against S. aureus 586.

Usually MIC stands for the lowest concentration found to suppress growth. Read a low MIC as a more susceptible organism.

These data come from publication PMC8584173, “The Cytotoxic Effect of Copper (II) Complexes with Halogenated 1,3-Disubstituted Arylthioureas on Cancer and Bacterial Cells” (International Journal of Molecular Sciences, 2021).
